According to patent US10961233B2 (LIFEARC, priority 2016, dated 2021):

Tests used:
WT full length PAICS = WT full length PAICS (Homo sapiens (Human), UniProt P22234); assay: Biochemical assay to measure PAICS activity (Transcreener ADP2 FI); conditions: SAICAR synthetase reaction, ADP detection, 30 min pre-incubation
Source text: Biochemical Assay to Measure PAICS Activity
The biochemical assay was used to measure PAICS SAICAR synthetase-mediated conversion of CAIR, aspartic acid and ATP to SAICAR, ADP and inorganic phosphate (Pi), post-AIR/CAIR equilibration (see FIG. 3). This was achieved by detecting the ADP generated during the reaction, using Bellbrook Lab's Transcreener ADP^2 FI assay. An increase in the fluorescence intensity is directly proportional to the amount of PAICS activity.
The Transcreener ADP^2 FI assay is a homogeneous competitive displacement fluorescence intensity assay which uses direct immunodetection of ADP. Displacement of the tracer by ADP causes an increase in the fluorescence at excitation 590 nm and emission 617 nm (FIG. 3).
5 μl WT full length PAICS (final assay concentration, fac, 2.5 nM) in basic buffer, added to black, non-binding, 384-well plates (Corning #3575), columns 1 to 22. 5 μl basic buffer was added to columns 23+24 (negative control). PAICS stock at 31.9 μM from the PI's lab (Steve Firestine). Basic buffer contained 50 mM Tris-HCl pH8 and 0.5 mM EDTA, fac.
1 μl compound in 100% DMSO added per well, or 1 μl 100% DMSO to positive controls (columns 1+2) and negative controls (columns 23+24). Final assay top concentration of compound either 1 mM or 30-μM, serially diluted with half-log dilutions across the plate in duplicate (one 10-point concentration response curve across wells 3 to 12, another across 13 to 22). Compounds pre-incubated with PAICS enzyme for 30 mins at RT. 2 μl CAIR added (fac 10 μM) in basic buffer plus 25 mM MgCl2 and 50 mM KHCO3 fac to all wells. CAIR stock 50 mM from Steve Firestine's lab. 1 hr RT incubation for AIR-CAIR equilibration. NB: ˜50% CAIR is decarboxylated during equilibration therefore 5 μM remains for the synthetase reaction.
2 μl ATP/aspartic acid added (fac 30 μM/180 μM) in reaction buffer to all wells. 30 mins RT incubation for appropriate level of ATP turnover. Reaction buffer contained basic buffer plus 10 mM DTT, 0.01% BSA and 0.01% Brij 35, fac.
10 μl ADP detection reagent added to all wells (as per instructions, Transcreener ADP^2 FI kit, BellBrook Labs #3013-10K). Incubation for 1 h at RT to allow antibody equilibration. Fluorescence intensity determined using a Tecan Safire2 (excitation at 590 nm, emission at 617 nm).

[1] = system: LM2 and MDA-MB-231 breast cancer cell lines; assay: PAICS 2D cell proliferation assay (CellTiter-Glo viability, 72 h); format: cell-based; conditions: Homo sapiens; 72 h incubation; cell line not given
Protocol: PAICS 2D Cell Proliferation Assay
Frozen cryovial stocks of LM2 and MDA-MB-231 breast cancer cell lines were thawed and cultured in 4.5 g/L glucose DMEM (31966-047, Invitrogen) supplemented with 10% Fetal Bovine Serum (10500-064, Invitrogen) until confluent in a T175 flask. Cells were incubated at 37° C. with 5% CO2 in a humidified incubator.
Cells were collected from T175 flasks by washing with PBS (10010-056, Invitrogen) and dissociated using Accutase (A6964, Sigma Aldrich). This was followed by centrifuging (1200 rpm, 5 min) and resuspending the cells in 10 ml of media containing 1% penicillin/streptomycin (15140-122, Invitrogen). Cells were counted by trypan blue exclusion method using an automated cell counter (Cellometer) and diluted to a concentration of 40,000/ml. 1000 cells were then seeded into 384-well white-walled plates (Corning, 3707) in a volume of 25 μl. Plates were Incubated overnight at 37° C. with 5% CO2.
After 24 hours, PAICS compounds were added onto the assay plates using an HP D300 Digital Dispenser (Hewlett Packard). 10 mM stocks were used and dispensed as a 10 point concentration response curve (CRC) ½ log dilution series with a final top concentration of 100 μM. Controls were added onto each plate: positive controls included Staurosporine CRC (100 μM stock dispensed as a 10 point CRC ½ log dilution series with a final top concentration of 1 μM) and PAICS compound MRT00211919 (10 mM stock dispensed as a 10 point CRC ½ log dilution series with a final top concentration of 100 μM); a high control of Staurosporine (0.1 μM (LM2), 0.316 μM (MDA-MB-231) FAC) and a low control of media containing 1% DMSO. A final concentration of 1% DMSO was then added across the plates for normalisation. Following compound addition, assay plates were incubated for 72 hours at 37° C. with 5% CO2.
Day 5—Cytotoxicity and Cell Viability Assays
After 72 h incubation, dead and viable cells were measured in each assay plate. Cytotoxicity was assessed through fluorescent DNA staining using the CellTox™ Green Cytotoxicity Assay kit (G8743, Promega) following the manufacturer's multiplexing protocol. Impaired cell membrane integrity results in the access of dye to stain DNA allowing quantification of dead cells. Cell viability was determined following ATP quantification using the CellTiter-Glo® Luminescent Cell Viability Assay kit (G7572, Promega) following the manufacturer's protocol. ATP released from lysed cells allowed for the generation of a signal proportional to the number of cells present in the well. All endpoint reads were performed using the PheraSTAR Plus (BMG Labtech). Data is expressed as % viable cells and % dead cells against controls (mean±SEM of duplicate curves).

WT full length PAICS, sequence (P22234 whole entry): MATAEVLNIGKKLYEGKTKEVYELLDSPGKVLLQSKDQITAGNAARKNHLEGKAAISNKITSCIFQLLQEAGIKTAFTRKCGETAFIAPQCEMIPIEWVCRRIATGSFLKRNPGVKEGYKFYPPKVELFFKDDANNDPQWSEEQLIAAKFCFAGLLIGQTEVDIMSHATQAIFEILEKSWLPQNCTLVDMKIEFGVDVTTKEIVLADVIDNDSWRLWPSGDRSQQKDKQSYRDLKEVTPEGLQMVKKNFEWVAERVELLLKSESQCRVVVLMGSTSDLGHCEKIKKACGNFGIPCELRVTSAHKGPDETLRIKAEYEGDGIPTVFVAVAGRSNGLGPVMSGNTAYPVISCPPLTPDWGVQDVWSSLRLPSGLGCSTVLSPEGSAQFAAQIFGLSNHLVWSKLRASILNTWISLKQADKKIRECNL

Compound: CN(C)CCNCCS(=O)(=O)N1CCN(c2ccc(Cl)c(NC(=O)c3coc(N)n3)c2)CC1 [Example 60]
- IC50 (WT full length PAICS): 10 to 25 nM
- EC50 [1]: 250 to 500 nM

Compound: CC(C)NCCS(=O)(=O)N1CCN(c2ccc(Cl)c(NC(=O)c3coc(N)n3)c2)CC1 [Example 61, 2-Amino-N-[2-chloro-5-(4-{[2-(propan-2-ylamino)ethyl]sulfonyl}piperazin-1-yl)phenyl]-1,3-oxazole-4-carboxamide]
- IC50 (WT full length PAICS): 10 to 25 nM
- EC50 [1]: 100 to 250 nM

Compound: CN1CCC(NCCS(=O)(=O)N2CCN(c3ccc(Cl)c(NC(=O)c4coc(N)n4)c3)CC2)CC1 [Example 62, 2-Amino-N-{2-chloro-5-[4-({2-[(1-methylpiperidin-4-yl)amino]ethyl}sulfonyl)piperazin-1-yl]phenyl}-1,3-oxazole-4-carboxamide]
- IC50 (WT full length PAICS): 10 to 25 nM
- EC50 [1]: 250 to 500 nM

Compound: CC(C)NCCS(=O)(=O)N1CCN(c2ccc(Br)c(NC(=O)c3coc(N)n3)c2)CC1 [Example 63]
- IC50 (WT full length PAICS): < 10 nM
- EC50 [1]: < 100 nM

Compound: CN1CCC(NCCS(=O)(=O)N2CCN(c3ccc(Br)c(NC(=O)c4coc(N)n4)c3)CC2)CC1 [Example 64, 2-Amino-N-{2-bromo-5-[4-({2-[(1-methylpiperidin-4-yl)amino]ethyl}sulfonyl)piperazin-1-yl]phenyl}-1,3-oxazole-4-carboxamide]
- IC50 (WT full length PAICS): < 10 nM
- EC50 [1]: 100 to 250 nM

Compound: CCNCCS(=O)(=O)N1CCN(c2ccc(Cl)c(NC(=O)c3coc(N)n3)c2)CC1 [Example 65, 2-Amino-N-[2-chloro-5-(4-{[2-(ethylamino)ethyl]sulfonyl}piperazin-1-yl)phenyl]-1,3-oxazole-4-carboxamide]
- IC50 (WT full length PAICS): 10 to 25 nM
- EC50 [1]: 100 to 250 nM

Compound: CCCNCCS(=O)(=O)N1CCN(c2ccc(Cl)c(NC(=O)c3coc(N)n3)c2)CC1 [Example 66, 2-Amino-N-[2-chloro-5-(4-{[2-(propylamino)ethyl]sulfonyl}piperazin-1-yl)phenyl]-1,3-oxazole-4-carboxamide]
- IC50 (WT full length PAICS): 10 to 25 nM
- EC50 [1]: 100 to 250 nM

Compound: Nc1nc(C(=O)Nc2cc(N3CCN(S(=O)(=O)CCCN4CCCC4)CC3)ccc2Br)co1 [Example 67, 2-Amino-N-[2-bromo-5-(4-{[3-(pyrrolidin-1-yl)propyl]sulfonyl}piperazin-1-yl)phenyl]-1,3-oxazole-4-carboxamide]
- IC50 (WT full length PAICS): < 10 nM
- EC50 [1]: < 100 nM

Compound: CN(C)CCCS(=O)(=O)N1CCN(c2ccc(Cl)c(NC(=O)c3coc(N)n3)c2)CC1 [Example 68, 2-Amino-N-[2-chloro-5-(4-{[3-(dimethylamino)propyl]sulfonyl}piperazin-1-yl)phenyl]-1,3-oxazole-4-carboxamide]
- IC50 (WT full length PAICS): 10 to 25 nM
- EC50 [1]: 250 to 500 nM

Compound: CCNCCCS(=O)(=O)N1CCN(c2ccc(Br)c(NC(=O)c3coc(N)n3)c2)CC1 [Example 70, 2-Amino-N-[2-bromo-5-(4-{[3-(ethylamino)propyl]sulfonyl}piperazin-1-yl)phenyl]-1,3-oxazole-4-carboxamide]
- IC50 (WT full length PAICS): < 10 nM
- EC50 [1]: < 100 nM

Compound: CC(C)NCCCS(=O)(=O)N1CCN(c2ccc(Cl)c(NC(=O)c3coc(N)n3)c2)CC1 [Example 72, 2-Amino-N-[2-chloro-5-(4-{[3-(propan-2-ylamino)propyl]sulfonyl}piperazin-1-yl)phenyl]-1,3-oxazole-4-carboxamide]
- IC50 (WT full length PAICS): < 10 nM
- EC50 [1]: 100 to 250 nM

Compound: CNCCCS(=O)(=O)N1CCN(c2ccc(Cl)c(NC(=O)c3coc(N)n3)c2)CC1 [Example 73, 2-Amino-N-[2-chloro-5-(4-{[3-(methylamino)propyl]sulfonyl}piperazin-1-yl)phenyl]-1,3-oxazole-4-carboxamide]
- IC50 (WT full length PAICS): 10 to 25 nM
- EC50 [1]: 250 to 500 nM

Compound: CCNCCCS(=O)(=O)N1CCN(c2ccc(Cl)c(NC(=O)c3coc(N)n3)c2)CC1 [Example 74]
- IC50 (WT full length PAICS): < 10 nM
- EC50 [1]: 250 to 500 nM

Compound: CNCCCS(=O)(=O)N1CCN(c2ccc(Br)c(NC(=O)c3coc(N)n3)c2)CC1 [Example 75, 2-Amino-N-[2-bromo-5-(4-{[3-(methylamino)propyl]sulfonyl}piperazin-1-yl)phenyl]-1,3-oxazole-4-carboxamide]
- IC50 (WT full length PAICS): < 10 nM
- EC50 [1]: 100 to 250 nM

Compound: CC(C)NCCCS(=O)(=O)N1CCN(c2ccc(Br)c(NC(=O)c3coc(N)n3)c2)CC1 [Example 76, 2-Amino-N-[2-bromo-5-(4-{[3-(propan-2-ylamino)propyl]sulfonyl}piperazin-1-yl)phenyl]-1,3-oxazole-4-carboxamide]
- IC50 (WT full length PAICS): < 10 nM
- EC50 [1]: < 100 nM

Compound: CCN(CC)CCCS(=O)(=O)N1CCN(c2ccc(Br)c(NC(=O)c3coc(N)n3)c2)CC1 [Example 77, 2-Amino-N-[2-bromo-5-(4-{[3-(diethylamino)propyl]sulfonyl}piperazin-1-yl)phenyl]-1,3-oxazole-4-carboxamide]
- IC50 (WT full length PAICS): < 10 nM
- EC50 [1]: < 100 nM

Compound: Nc1nc(C(=O)Nc2cc(N3CCN(S(=O)(=O)C4CCNCC4)CC3)ccc2Br)co1 [Example 84]
- IC50 (WT full length PAICS): < 10 nM
- EC50 [1]: 100 to 250 nM

Compound: CN1CCC(S(=O)(=O)N2CCN(c3ccc(Br)c(NC(=O)c4coc(N)n4)c3)CC2)CC1 [Example 85, 2-Amino-N-(2-bromo-5-{4-[(1-methylpiperidin-4-yl)sulfonyl]piperazin-1-yl}phenyl)-1,3-oxazole-4-carboxamide]
- IC50 (WT full length PAICS): < 10 nM
- EC50 [1]: 100 to 250 nM

Compound: Nc1nc(C(=O)Nc2cc(N3CCN(S(=O)(=O)C4CCNCC4)CC3)ccc2Cl)co1 [Example 86, 2-Amino-N-{2-chloro-5-[4-(piperidin-4-ylsulfonyl)piperazin-1-yl]phenyl}-1,3-oxazole-4-carboxamide]
- IC50 (WT full length PAICS): 10 to 25 nM
- EC50 [1]: 250 to 500 nM

Compound: CN1CCC(S(=O)(=O)N2CCN(c3ccc(Cl)c(NC(=O)c4coc(N)n4)c3)CC2)CC1 [Example 87, 2-Amino-N-{2-chloro-8-(4-[(1-methylpiperidin-4-yl)sulfonyl]piperazin-1-yl}phenyl)-1,3-oxazole-4-carboxamide]
- IC50 (WT full length PAICS): 10 to 25 nM
- EC50 [1]: 250 to 500 nM
